Experimental data taken from PubChem BioAssay AID248 (DTP/NCI, 2004).
Several values for one entry are separate records, joined by “and”; a condition that tells them apart may be missing. Equal values may be shown once. Inconclusive results and toxic doses are left out. No stated cut-off is given here; in the data, active means T/C of 150% or more; inactive means T/C below 125%.

Tested on: L1210 leukemia ip in BDF1 mice, survival T/C
Assay: NCI In Vivo Anticancer Drug Screen. Data for tumor model L1210 Leukemia (intraperitoneal) in B6D2F1 (BDF1) mice
Details: endpoint: mean survival time, higher = longer survival
Method in brief: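 Tumor cells were implanted, animals were treated, and survival was followed. The result divides the treated measurement by the vehicle-control measurement.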

[1] = dose: 100.0 mg/kg/injection, schedule: Q01DX001 (ip), vehicle: carboxymethylcellulose (CMC)
[2] = dose: 100.0 mg/kg/injection, schedule: Q04DX002 (ip), vehicle: gum acacia
[3] = dose: 200.0 mg/kg/injection, schedule: Q01DX001 (ip), vehicle: carboxymethylcellulose (CMC)
[4] = dose: 200.0 mg/kg/injection, schedule: Q04DX002 (ip), vehicle: gum acacia
[5] = dose: 400.0 mg/kg/injection, schedule: Q01DX001 (ip), vehicle: carboxymethylcellulose (CMC)
[6] = dose: 100.0 mg/kg/injection, schedule: Q04DX003 (ip), vehicle: Klucel (hydroxypropylcellulose) (HPC)
[7] = dose: 100.0 mg/kg/injection, schedule: Q01DX001 (ip), vehicle: saline with Tween-80
[8] = dose: 200.0 mg/kg/injection, schedule: Q01DX001 (ip), vehicle: saline with Tween-80
[9] = dose: 400.0 mg/kg/injection, schedule: Q01DX001 (ip), vehicle: saline with Tween-80
[10] = dose: 100.0 mg/kg/injection, schedule: Q01DX009 (ip), vehicle: Klucel (hydroxypropylcellulose) (HPC)
[11] = dose: 200.0 mg/kg/injection, schedule: Q01DX009 (ip), vehicle: Klucel (hydroxypropylcellulose) (HPC)
[12] = dose: 200.0 mg/kg/injection, schedule: Q04DX003 (ip), vehicle: Klucel (hydroxypropylcellulose) (HPC)
[13] = dose: 400.0 mg/kg/injection, schedule: Q01DX009 (ip), vehicle: Klucel (hydroxypropylcellulose) (HPC)
[14] = dose: 400.0 mg/kg/injection, schedule: Q04DX003 (ip), vehicle: Klucel (hydroxypropylcellulose) (HPC)

Measured: T/C

NC=O
inactive: dose: 62.5 mg/kg/injection, schedule: Q01DX009 (ip), vehicle: saline 112 % of control | dose: 62.5 mg/kg/injection, schedule: Q01DX015 (ip), vehicle: saline 95 % of control | dose: 100.0 mg/kg/injection, schedule: Q01DX001 (ip), vehicle: saline 94 % of control and 109 % of control | dose: 125.0 mg/kg/injection, schedule: Q01DX009 (ip), vehicle: saline 107 % of control | dose: 125.0 mg/kg/injection, schedule: Q01DX015 (ip), vehicle: saline 101 % of control | dose: 200.0 mg/kg/injection, schedule: Q01DX001 (ip), vehicle: saline 101 % of control and 92 % of control | dose: 250.0 mg/kg/injection, schedule: Q01DX009 (ip), vehicle: saline 118 % of control | dose: 250.0 mg/kg/injection, schedule: Q01DX015 (ip), vehicle: saline 110 % of control | dose: 400.0 mg/kg/injection, schedule: Q01DX001 (ip), vehicle: saline 100 % of control and 101 % of control | dose: 500.0 mg/kg/injection, schedule: Q01DX015 (ip), vehicle: saline 92 % of control | dose: 800.0 mg/kg/injection, schedule: Q01DX001 (ip), vehicle: saline 106 % of control

CN(N=O)C(=O)NCCSSCCNC(=O)N(C)N=O
active: dose: 40.0 mg/kg/injection, schedule: Q01DX011 (ip), vehicle: carboxymethylcellulose (CMC) 161 % of control
inactive: dose: 5.0 mg/kg/injection, schedule: Q01DX011 (ip), vehicle: carboxymethylcellulose (CMC) 107 % of control | dose: 5.0 mg/kg/injection, schedule: Q01DX Z (ip), vehicle: carboxymethylcellulose (CMC) 104 % of control | dose: 10.0 mg/kg/injection, schedule: Q01DX011 (ip), vehicle: carboxymethylcellulose (CMC) 102 % of control | dose: 10.0 mg/kg/injection, schedule: Q01DX Z (ip), vehicle: carboxymethylcellulose (CMC) 104 % of control | dose: 20.0 mg/kg/injection, schedule: Q01DX011 (ip), vehicle: carboxymethylcellulose (CMC) 112 % of control | dose: 20.0 mg/kg/injection, schedule: Q01DX Z (ip), vehicle: carboxymethylcellulose (CMC) 112 % of control | dose: 40.0 mg/kg/injection, schedule: Q01DX Z (ip), vehicle: carboxymethylcellulose (CMC) 119 % of control

O=C(NCCCCCCCCCNC(=O)Nc1ccc(C2=NCCCN2)cc1)Nc1ccc(C2=NCCCN2)cc1
inactive: dose: 3.75 mg/kg/injection, schedule: Q01DX Z (ip), vehicle: carboxymethylcellulose (CMC) 91 % of control | dose: 7.5 mg/kg/injection, schedule: Q01DX Z (ip), vehicle: carboxymethylcellulose (CMC) 98 % of control | dose: 15.0 mg/kg/injection, schedule: Q01DX Z (ip), vehicle: carboxymethylcellulose (CMC) 122 % of control

O=C(O)c1ccc(OCCOc2ccc([N+](=O)[O-])cc2)c(Cl)c1
inactive: [1] 95 % of control and 105 % of control | dose: 100.0 mg/kg/injection, schedule: Q01DX009 (ip), vehicle: carboxymethylcellulose (CMC) 92 % of control and 89 % of control | [2] 101 % of control | dose: 100.0 mg/kg/injection, schedule: Q04DX003 (ip), vehicle: carboxymethylcellulose (CMC) 95 % of control and 86 % of control | [3] 101 % of control and 103 % of control | dose: 200.0 mg/kg/injection, schedule: Q01DX009 (ip), vehicle: carboxymethylcellulose (CMC) 93 % of control and 100 % of control | [4] 98 % of control and 99 % of control | dose: 200.0 mg/kg/injection, schedule: Q04DX003 (ip), vehicle: carboxymethylcellulose (CMC) 95 % of control and 90 % of control | [5] 100 % of control | dose: 400.0 mg/kg/injection, schedule: Q04DX002 (ip), vehicle: gum acacia 94 % of control and 98 % of control | dose: 400.0 mg/kg/injection, schedule: Q04DX003 (ip), vehicle: carboxymethylcellulose (CMC) 90 % of control and 91 % of control

COC(=O)c1cncn1C(C)c1cccc2ccccc12 (configuration not stated)
inactive: dose: 25.0 mg/kg/injection, schedule: Q04DX003 (ip), vehicle: Klucel (hydroxypropylcellulose) (HPC) 96 % of control | dose: 50.0 mg/kg/injection, schedule: Q04DX003 (ip), vehicle: Klucel (hydroxypropylcellulose) (HPC) 102 % of control | [6] 101 % of control and 103 % of control

CC1(C)C2CCC(I)(C2)C1I (configuration not stated)
inactive: [7] 93 % of control | [8] 90 % of control | [9] 93 % of control

CCOc1ccccc1NC(=O)Nc1ccccc1C
inactive: [10] 102 % of control | [6] 101 % of control | [11] 100 % of control | [12] 105 % of control | [13] 94 % of control | [14] 103 % of control

O=c1[nH]cnc2c1ncn2C1CCCC1
inactive: dose: 18.12 mg/kg/injection, schedule: Q01DX Z (ip), vehicle: carboxymethylcellulose (CMC) 98 % of control | dose: 36.25 mg/kg/injection, schedule: Q01DX Z (ip), vehicle: carboxymethylcellulose (CMC) 98 % of control | dose: 36.25 mg/kg/injection, schedule: Q01DX Z (oral), vehicle: carboxymethylcellulose (CMC) 110 % of control | dose: 72.5 mg/kg/injection, schedule: Q01DX Z (ip), vehicle: carboxymethylcellulose (CMC) 93 % of control | dose: 72.5 mg/kg/injection, schedule: Q01DX Z (oral), vehicle: carboxymethylcellulose (CMC) 98 % of control | dose: 145.0 mg/kg/injection, schedule: Q01DX Z (ip), vehicle: carboxymethylcellulose (CMC) 98 % of control | dose: 145.0 mg/kg/injection, schedule: Q01DX Z (oral), vehicle: carboxymethylcellulose (CMC) 102 % of control | dose: 290.0 mg/kg/injection, schedule: Q01DX Z (oral), vehicle: carboxymethylcellulose (CMC) 110 % of control

CC12CCC(Cl)CC1=CCC1C2CCC2(C)c3nc(N)ncc3CC12 (configuration not stated)
inactive: dose: 100.0 mg/kg/injection, schedule: Q04DX003 (sc), vehicle: gum acacia 101 % of control | dose: 200.0 mg/kg/injection, schedule: Q04DX003 (sc), vehicle: gum acacia 92 % of control | dose: 400.0 mg/kg/injection, schedule: Q04DX003 (sc), vehicle: gum acacia 103 % of control

COc1ccc2nonc2c1
inactive: dose: 100.0 mg/kg/injection, schedule: Q01DX001 (ip), vehicle: other 100 % of control | dose: 200.0 mg/kg/injection, schedule: Q01DX001 (ip), vehicle: other 110 % of control

O=S(=O)(Cl)c1ccccc1S(=O)(=O)Cl
inactive: [6] 95 % of control | [12] 93 % of control | [14] 86 % of control

O=C(O)C(CO)c1ccc(F)cc1 (configuration not stated)
inactive: [1] 108 % of control | [3] 106 % of control | [5] 108 % of control

CC(=O)Nc1nc(Cl)c([N+](=O)[O-])c(Cl)n1
inactive: dose: 3.12 mg/kg/injection, schedule: Q04DX002 (ip), vehicle: Klucel (hydroxypropylcellulose) (HPC) 103 % of control | dose: 6.25 mg/kg/injection, schedule: Q04DX002 (ip), vehicle: Klucel (hydroxypropylcellulose) (HPC) 100 % of control | dose: 12.5 mg/kg/injection, schedule: Q01DX001 (ip), vehicle: Klucel (hydroxypropylcellulose) (HPC) 92 % of control | dose: 12.5 mg/kg/injection, schedule: Q04DX002 (ip), vehicle: Klucel (hydroxypropylcellulose) (HPC) 103 % of control

Cc1cc([N+](=O)[O-])c(Nc2cccc(O)c2)c([N+](=O)[O-])c1
inactive: [10] 108 % of control | [6] 101 % of control | [11] 102 % of control | [12] 95 % of control | [13] 116 % of control | [14] 101 % of control

Cc1cc(C)c(C(=O)C(=S)N2CCOCC2)c(C)c1
inactive: dose: 200.0 mg/kg/injection, schedule: Q01DX009 (ip), vehicle: acetone 90 % of control | dose: 400.0 mg/kg/injection, schedule: Q01DX009 (ip), vehicle: acetone 96 % of control

CCCCCCC(C)CC(CCCCCC)NCCOC(=O)c1ccc([N+](=O)[O-])cc1 (configuration not stated)
inactive: dose: 75.0 mg/kg/injection, schedule: Q01DX001 (ip), vehicle: saline 105 % of control | dose: 150.0 mg/kg/injection, schedule: Q01DX001 (ip), vehicle: saline 100 % of control | dose: 300.0 mg/kg/injection, schedule: Q01DX001 (ip), vehicle: saline 121 % of control

COC(=O)C/C(=N\NC(=O)c1ccccc1)C(=O)OC
inactive: dose: 50.0 mg/kg/injection, schedule: Q01DX009 (ip), vehicle: Klucel (hydroxypropylcellulose) (HPC) 98 % of control | [10] 93 % of control | [11] 98 % of control | [13] 93 % of control

C1CCc2c(sc3c2CCCC3)C1
inactive: dose: 50.0 mg/kg/injection, schedule: Q01DX001 (ip), vehicle: carboxymethylcellulose (CMC) 98 % of control | [1] 104 % of control | [3] 98 % of control | [5] 107 % of control

CSCC#N
inactive: [7] 93 % of control | [8] 96 % of control | [9] 96 % of control

N#CCC(C(=O)c1cccnc1)c1ccccc1 (configuration not stated)
inactive: [2] 104 % of control | [4] 87 % of control
